In patent US20250304559A1, “Ether-Linked Antiviral Compounds” (Pfizer Inc., priority 2021, published 2025):
Where a name gives a salt, the structure may show the parent alone. Read-outs that look alike come from different tables or passages of the source.

Key:
SARS-CoV-2 3CL protease = molecular target: T1, SARS-CoV-2 3CL protease (Severe acute respiratory syndrome coronavirus 2, UniProt P0DTD1); assay: SARS-CoV-2 Coronavirus 3C Protease FRET Assay; assay type: biochemical; settings: Morrison equation fit, 15 nM enzyme, 25 μM peptide substrate
T1 construct: measures the activity of full-length SARS-CoV-2 3CL protease

[1] = tested on: SARS-CoV-2 (USA_WA1/2020); assay: Antiviral Activity from SARS-CoV-2 Infection (cytopathic effect, Cell Titer-Glo); assay type: cell-based; settings: VeroE6 cells enriched for hACE2, MOI 0.002, 3-day incubation, tested alone or with P-gp inhibitor CP-100356 2 μM (table does not say which), read-out: Geometric Mean EC50
[2] = Examples 1-13, 60 minutes at 23° C., read-out: Geometric Mean Ki
[3] = Severe acute respiratory syndrome coronavirus 2, Vero C1008, 72 h
[4] = Examples 14-78 and 114 (second head of Table 2), read-out: Geometric Mean Ki (nM) IC50

SMILES	Ki (SARS-CoV-2 3CL protease; [2]) [nM]	EC50 [1, 3] [nM]	Ki (SARS-CoV-2 3CL protease; [4]) [nM]	EC50 [1] [nM]
CC(C)[C@H](NC(=O)C(F)(F)F)C(=O)N1C[C@H]2[C@@H]([C@H]1C(=O)N[C@@H](C[C@@H]1CCNC1=O)C(=O)COc1ccc(F)cc1F)C2(C)C [Example 1, (1R,2S,5S)-N-{(2S)-4-(2,4-difluorophenoxy)-3-oxo-1-[(3S)-2-oxopyrrolidin-3-yl]butan-2-yl}-6,6-dimethyl-3-[N-(trifluoroacetyl)-L-valyl]-3-azabicyclo[3.1.0]hexane-2-carboxamide]	2.02	26.9		
CC(C)[C@H](NC(=O)C(F)(F)F)C(=O)N1C[C@H]2[C@@H]([C@H]1C(=O)N[C@@H](C[C@@H]1CCNC1=O)C(=O)COc1nnc(C(F)(F)F)n1C)C2(C)C [Example 74, (1R,2S,5S)-6,6-dimethyl-N-{(2S)-4-{[4-methyl-5-(trifluoromethyl)-4H-1,2,4-triazol-3-yl]oxy}-3-oxo-1-[(3S)-2-oxopyrrolidin-3-yl]butan-2-yl}-3-[N-(trifluoroacetyl)-L-valyl]-3-azabicyclo[3.1.0]hexane-2-carboxamide]		25700	919	
CC(C)[C@H](NC(=O)C(F)(F)F)C(=O)N1C[C@H]2[C@@H]([C@H]1C(=O)N[C@@H](C[C@@H]1CC(=O)NC1=O)C(=O)COc1ccc(F)cc1F)C2(C)C [Example 42, (1R,2S,5S)-N-{(2S)-4-(2,4-difluorophenoxy)-1-[(3R)-2,5-dioxopyrrolidin-3-yl]-3-oxobutan-2-yl}-6,6-dimethyl-3-[N-(trifluoroacetyl)-L-valyl]-3-azabicyclo[3.1.0]hexane-2-carboxamide]		301	7.05	
CCn1nc(C)cc1OCC(=O)[C@H](C[C@@H]1CCNC1=O)NC(=O)[C@@H]1[C@@H]2[C@H](CN1C(=O)[C@@H](NC(=O)C(F)(F)F)C(C)(C)C)C2(C)C [Example 27, (1R,2S,5S)-N-{(2S)-4-[(1-ethyl-3-methyl-1H-pyrazol-5-yl)oxy]-3-oxo-1-[(3S)-2-oxopyrrolidin-3-yl]butan-2-yl}-6,6-dimethyl-3-[3-methyl-N-(trifluoroacetyl)-L-valyl]-3-azabicyclo[3.1.0]hexane-2-carboxamide]		422	8.84	
CCn1nc(C)cc1OCC(=O)[C@H](C[C@@H]1CCNC1=O)NC(=O)[C@@H]1[C@@H]2[C@H](CN1C(=O)[C@@H](NC(=O)OC)C(C)(C)C)C2(C)C [Example 33, methyl {(2S)-1-[(1R,2S,5S)-2-({(2S)-4-[(1-ethyl-3-methyl-1H-pyrazol-5-yl)oxy]-3-oxo-1-[(3S)-2-oxopyrrolidin-3-yl]butan-2-yl}carbamoyl)-6,6-dimethyl-3-azabicyclo[3.1.0]hexan-3-yl]-3,3-dimethyl-1-oxobutan-2-yl}carbamate]		1270	3.04	
CC(C)[C@H](NC(=O)C(F)(F)F)C(=O)N1C[C@H]2[C@@H]([C@H]1C(=O)N[C@@H](C[C@@H]1CCNC1=O)C(=O)COc1cc(C(F)(F)F)nn1C)C2(C)C [Example 9, (1R,2S,5S)-6,6-dimethyl-N-{(2S)-4-{[1-methyl-3-(trifluoromethyl)-1H-pyrazol-5-yl]oxy}-3-oxo-1-[(3S)-2-oxopyrrolidin-3-yl]butan-2-yl}-3-[N-(trifluoroacetyl)-L-valyl]-3-azabicyclo[3.1.0]hexane-2-carboxamide, trifluoroacetate salt]	42.8	265		
COC(=O)N[C@H](C(=O)N1C[C@H]2[C@@H]([C@H]1C(=O)N[C@@H](C[C@@H]1CCNC1=O)C(=O)COc1ccccc1F)C2(C)C)C(C)(C)C [Example 22, methyl {(2S)-1-[(1R,2S,5S)-2-({(2S)-4-(2-fluorophenoxy)-3-oxo-1-[(3S)-2-oxopyrrolidin-3-yl]butan-2-yl}carbamoyl)-6,6-dimethyl-3-azabicyclo[3.1.0]hexan-3-yl]-3,3-dimethyl-1-oxobutan-2-yl}carbamate]		52	4.78	
CC(C)(C)[C@H](NS(C)(=O)=O)C(=O)N1C[C@H]2[C@@H]([C@H]1C(=O)N[C@@H](C[C@@H]1CCNC1=O)C(=O)COc1ccc(F)cc1F)C2(C)C [Example 13, (1R,2S,5S)-N-{(2S)-4-(2,4-difluorophenoxy)-3-oxo-1-[(3S)-2-oxopyrrolidin-3-yl]butan-2-yl}-6,6-dimethyl-3-[3-methyl-N-(methylsulfonyl)-L-valyl]-3-azabicyclo[3.1.0]hexane-2-carboxamide]	1.78	98.6		
CC(C)C[C@@H](C(=O)N1C[C@H]2[C@@H]([C@H]1C(=O)N[C@@H](C[C@@H]1CCNC1=O)C(=O)COc1cc(C(F)(F)F)nn1C)C2(C)C)N(C)C(C)C (single isomer, unassigned) [Example 73, (1R,2S,5S)-6,6-dimethyl-3-[N-methyl-N-(propan-2-yl)-L-leucyl]-N-{(2R*)-4-{[1-methyl-3-(trifluoromethyl)-1H-pyrazol-5-yl]oxy}-3-oxo-1-[(3S)-2-oxopyrrolidin-3-yl]butan-2-yl}-3-azabicyclo[3.1.0]hexane-2-carboxamide, DIAST-2]			962	140
Cc1ccc2nc(OCC(=O)[C@H](C[C@@H]3CCNC3=O)NC(=O)[C@@H]3[C@@H]4[C@H](CN3C(=O)[C@@H](NC(=O)C(F)(F)F)C(C)C)C4(C)C)oc2c1 [Example 72, (1R,2S,5S)-6,6-dimethyl-N-{(2S)-4-[(6-methyl-1,3-benzoxazol-2-yl)oxy]-3-oxo-1-[(3S)-2-oxopyrrolidin-3-yl]butan-2-yl}-3-[N-(trifluoroacetyl)-L-valyl]-3-azabicyclo[3.1.0]hexane-2-carboxamide]		19000	505	
CC(C)(C)[C@H](NS(=O)(=O)C(F)(F)F)C(=O)N1C[C@H]2[C@@H]([C@H]1C(=O)N[C@@H](C[C@@H]1CC(=O)NC1=O)C(=O)COc1ccc(F)cc1F)C2(C)C [Example 44, (1R,2S,5S)-N-{(2S)-4-(2,4-difluorophenoxy)-1-[(3R)-2,5-dioxopyrrolidin-3-yl]-3-oxobutan-2-yl}-6,6-dimethyl-3-[3-methyl-N-(trifluoromethanesulfonyl)-L-valyl]-3-azabicyclo[3.1.0]hexane-2-carboxamide]		408	8.95	
Cn1nc(C(F)(F)F)cc1OCC(=O)[C@H](C[C@@H]1CCNC1=O)NC(=O)[C@@H]1[C@@H]2[C@H](CN1C(=O)[C@@H](NS(=O)(=O)C(F)(F)F)C(C)(C)C)C2(C)C [Example 6, (1R,2S,5S)-6,6-dimethyl-N-{(2S)-4-{[1-methyl-3-(trifluoromethyl)-1H-pyrazol-5-yl]oxy}-3-oxo-1-[(3S)-2-oxopyrrolidin-3-yl]butan-2-yl}-3-{3-methyl-N-[(trifluoromethyl)sulfonyl]-L-valyl}-3-azabicyclo[3.1.0]hexane-2-carboxamide]	19.8	735		
CC(C)C[C@@H](C(=O)N1C[C@H]2[C@@H]([C@H]1C(=O)N[C@@H](C[C@@H]1CCNC1=O)C(=O)COc1cc(C(F)(F)F)nn1C)C2(C)C)N(C)C(C)C (single isomer, unassigned) [Example 65, (1R,2S,5S)-6,6-dimethyl-3-[N-methyl-N-(propan-2-yl)-L-leucyl]-N-{(2R*)-4-{[1-methyl-3-(trifluoromethyl)-1H-pyrazol-5-yl]oxy}-3-oxo-1-[(3S)-2-oxopyrrolidin-3-yl]butan-2-yl}-3-azabicyclo[3.1.0]hexane-2-carboxamide, DIAST-1]		133	96.7	
